Reference: patent publication US9139616B2, “Isolation, identification, and uses of antifungal compounds” (priority 2010, dated 2015)
Converted amounts (≈) assume the structure as drawn. Numbered stars: 1 amine (or outer) side, 2 acyl side, 3 side chain; on linkers, the order of the positions; unused ones are H or OH. Bridge positions count the residues as written; N and C are the ends. Square brackets hold non-standard residues; d marks the D form. Peptide text beside a SMILES is read from it. ξ: configuration not given here. X1 = CCCCCCCCCCCC(O[C@H]1OC[C@H](O)[C@@H](O)[C@@H]1O)C(O)C(O)CC(CC(=O)[*:1])N[*:2]; X2 = CCCCCCCCCCCC(O)C(O)C(O)CC(CC(=O)[*:2])N[*:1]; Asn(3S-OH) = NC(=O)[C@@H](O)[C@H](N)C(=O)O; ξTyr(βOH) = NC(C(=O)O)C(O)c1ccc(O)cc1

Experiments:
Test in all cases: Microtitre 2-fold serial dilution MIC assay
Assay type in all cases: cell-based
Aspergillus niger = conditions: A. niger; 30° C., 4 days, turbidity
Saccharomyces cerevisiae = conditions: S. cerevisiae; 30° C., 4 days, turbidity
Protocol: Anti-fungal activity for the present compounds was determined using microtitre format. Microtitre plates (96 wells: rows A-H, columns 1-12) were filled by the following protocol to give 2-fold serial dilutions of each of Bk-1229 and Bk-1097. Samples of Bk-1229 and Bk-1097 were dissolved in 1/10-strength BHIB containing 0.1% (w/v) dimethylsulfoxide (DMSO). Aliquots (50 μL) of 1/10-strength BHIB containing 0.1 (w/v) % DMSO (pH 7.4) were added to all wells except those in column 1. The wells in column 1 received 100 μL of the solutions of Bk-1229 or Bk-1097 and 50 μL was removed and mixed with the medium in the second well. This process was repeated through well 11, at which point an aliquot (50 μL) was removed and discarded. Well 12 was the blank (positive growth) control, BHIB+DMSO only. The test microorganisms employed in this example were Saccharomyces cerevisiae, Candida albicans, and Aspergillus niger, which were obtained from the Virginia Tech Microbiology Culture Collection. Cells of S. cerevisiae and C. albicans were grown in sterile 1/10-strength Brain Heart Infusion Broth (BHIB) and incubated at 30° C. for 18 h. Cells were counted as colony forming units on 1/10-strength BHIB agar. Spore suspensions of A. niger were prepared from lawns of sporulating colonies on 1/10-strength BHIB agar. The number of spores was determined by counting spores microscopically in a Petroff-Hauser counting chamber. The resulting culture or spore suspensions were diluted to 10^5 cells or spores/mL. Following the preparation of the dilution series, 50 μL of microbial inocula (10^5/mL) were added to each well in a row. The concentration of Bk-1229 and Bk-1097 ranged from 50 to 0.05 μg/mL. After the plates were incubated at 30° C. for 4 days, measurement of minimal inhibitory concentration (MIC) results were read by comparing the turbidity (due to microbial growth) of each test well to the positive control wells. The measured MICs for each of burkholdines are summarized as follow: […]

Candida albicans = conditions: C. albicans; 30° C., 4 days, turbidity

SMILES	MIC (Aspergillus niger) [µg/mL]	MIC (Saccharomyces cerevisiae) [µg/mL]	MIC (Candida albicans) [µg/mL]
C[C@@H]1[C@H](O)[C@@H](C)/C=C/C=C/C=C/C=C/C=C/C=C/C=C/[C@H](O[C@@H]2O[C@H](C)[C@@H](O)[C@H](N)[C@@H]2O)C[C@@H]2O[C@](O)(C[C@@H](O)C[C@@H](O)[C@H](O)CC[C@@H](O)C[C@@H](O)CC(=O)O[C@H]1C)C[C@H](O)[C@H]2C(=O)O [Amphetericin B, reference compound]	25 (≈ 27.1 µM)	25 (≈ 27.1 µM)	25 (≈ 27.1 µM)
CCCCCCCCCCCC(O)C(O)C(O)CC1CC(=O)N[C@H](CO)C(=O)NC(C(O)c2ccc(O)cc2)C(=O)N[C@H](CC(N)=O)C(=O)NCC(=O)N[C@@H](CC(N)=O)C(=O)N[C@@H](CO)C(=O)N[C@@H]([C@H](O)C(N)=O)C(=O)N1 (stereo partly drawn) [Bk-1097 (2), burkholdine 1097] (cyclo(GNS[Asn(3S-OH)][X2][dS][ξTyr(βOH)][dN]))	1.6 (≈ 1.46 µM)	1.6 (≈ 1.46 µM)	12.5 (≈ 11.4 µM)
CCCCCCCCCCCC(O[C@H]1OC[C@H](O)[C@@H](O)[C@@H]1O)C(O)C(O)CC1CC(=O)N[C@H](CO)C(=O)NC(C(O)c2ccc(O)cc2)C(=O)N[C@H](CC(N)=O)C(=O)NCC(=O)N[C@@H](CC(N)=O)C(=O)N[C@@H](CO)C(=O)N[C@@H]([C@H](O)C(N)=O)C(=O)N1 (stereo partly drawn) [Bk-1229 (1), burkholdine 1229] ([dS][ξTyr(βOH)][dN]GNS[Asn(3S-OH)]; linker N-C via X1)	12.5 (≈ 10.2 µM)	0.4 (≈ 0.325 µM)	12.5 (≈ 10.2 µM)
